Results from patent US20220127297A1, “Novel Antibacterial 3"-Derivatives Of 4,6-Disubstituted 2,5-Dideoxystreptamine Aminoglycoside Antibiotics” (AGILeBiotics B.V., priority 2018, published 2022).
In brackets after ≈: the same amount, converted by molar mass.

System: E. coli (AAC(3)III)
Test: MIC 50, broth micro-dilution, E. coli expressing AAC(3)III
Type: cell-based, Escherichia coli
Settings: ATCC25922 harboring plasmid encoding AAC(3)III

Compared with `N=C(N)NC1[C@@H](O)C(OC2[C@@H](F)[C@H](O[C@H]3OC(CN)[C@@H](O)[C@H](O)C3N)C(N)C[C@H]2NC(=O)[C@@H](O)CCN)O[C@H](CO)[C@H]1O` (stereo partly drawn) [ABX4004, 3′epi-KanaB-AHB-F-Gua], `NCC[C@H](O)C(=O)N[C@@H]1CC(N)[C@@H](O[C@H]2OC(CN)[C@@H](O)[C@@H](O)C2N)[C@H](O)C1OC1O[C@H](CO)[C@@H](O)C(N)[C@H]1O` (stereo partly drawn) [ABX4002, 3′Epi-KanaB-AHB] is 8-fold higher in “MIC50” value: 0.5 µM (≈ 0.314 µg/mL) for the first, 4 µM (≈ 2.34 µg/mL) for the second.

Going from `NCC[C@H](O)C(=O)N[C@@H]1CC(N)[C@@H](O[C@H]2OC(CN)[C@@H](O)CC2N)[C@H](O)C1OC1O[C@H](CO)[C@@H](O)C(N)[C@H]1O` (stereo partly shown) [ABX5004, Tobra-AHB] to `NCC[C@H](O)C(=O)N[C@@H]1C[C@H](N)[C@@H](O[C@H]2O[C@H](CN)[C@@H](O)[C@@H](O)[C@H]2O)[C@H](O)[C@H]1O[C@H]1O[C@H](CO)[C@@H](O)[C@H](N)[C@H]1O` [ABX3002, 3′Epi-KanaA-AHB], the “MIC50” value rises from 1 µM (≈ 0.569 µg/mL) to 16 µM (≈ 9.37 µg/mL) (16-fold).

Same assay, conditions: Escherichia coli, ATCC25922, ATCC25922 harboring plasmid encoding AAC(3)III

Going from `N=C(NCC1CC1)NC1[C@@H](O)C(OC2[C@@H](F)[C@H](O[C@H]3OC(CN)[C@@H](O)CC3N)C(N)C[C@H]2NC(=O)[C@@H](O)CCN)O[C@H](CO)[C@H]1O` (stereo partly shown) [ABX5027, Tobra-AHB-F-Gua cyclopropylmethyl] to `N=C(NC[C@H]1CCNC1)NC1[C@@H](O)C(OC2[C@@H](F)[C@H](O[C@H]3OC(CN)[C@@H](O)CC3N)C(N)C[C@H]2NC(=O)[C@@H](O)CCN)O[C@H](CO)[C@H]1O` (stereo partly drawn) [ABX5042, Tobra-AHB-F-Gua (S) pyrrolidine-3-ylmethyl], the MIC50 falls from 0.25 µM (≈ 0.167 µg/mL) to 0.125 µM (≈ 0.087 µg/mL) (2-fold).

Work on `CC(C)(C)CCNC(=N)NC1[C@@H](O)C(OC2[C@@H](F)[C@H](O[C@H]3OC(CN)[C@@H](O)CC3N)C(N)C[C@H]2NC(=O)[C@@H](O)CCN)O[C@H](CO)[C@H]1O` (stereo partly shown) [ABX5025, Tobra-AHB-F-Gua 2-tBu-ethyl] yielded an MIC50 of 0.5 µM (≈ 0.348 µg/mL).
